Tests used:
[1] = molecular target: T1, tankyrase 2 (TNKS2) (Homo sapiens, UniProt Q9H2K2); experiment: μHTS-TNKS-IWR2 TR-FRET Binding Assay (Example 118), His6-TNKS2 substituted; settings: procedure in Example 118 with His6-TNKS2
T1 construct: His6-tankyrase 2 (construct: 934-1166) (His6-TNKS2)
Experimental: (§1) μHTS-TNKS-IWR2 TR-FRET Binding Assay (10 μL/well in BD1536-well plate, a single point)
(§2) Reagents and Stock Solutions
Tankyrase 1 (TNKS1): 184.3 μM=5.2 mg/mL His6-TNKS1, MW=28.2 KDa (construct: 1088-1327, 1266M) in 20 mM Tris pH 8, 150 mM NaCl, 10% glycerol, and 0.5 mM TCEP. Alternatively, His6-tankyrase 2 (construct: 934-1166) (His6-TNKS2) or His6-PARP1 (full length) can be substituted for His6-TNKS 1.
(§3) Biotin-4-((1S,2R,6S,7R)-3,5-Dioxo-4-aza-tricyclo[5.2.1.0*2,6]dec-8-en-4-yl)-N-(4-methyl-quinolin-8-yl)-benzamide (Biotin-IWR2): 10 mM Biotin-IWR2 stock in DMSO, stored at −20° C.
Positive control: 10 mM 2-(4-Trifluoromethyl-phenyl)-3,5,7,8-tetrahydro-thiopyrano[4,3-d]pyrimidin-4-one (XAV939) in DMSO, stored at −20° C.
APC-anti-His Ab: 8.50 μM SL-APC, 8.26 μM anti-6His antibody-SureLight APC (Columia Bioscience, Catalog Number D3-1711, Lot Number N01010-AAH04)
Assay plate: BD 1536-well, clear/black plate (Catalog Number 353255)
(§4) Assay buffer 1a (AB1a) for TNKS dilution: 50 mM Tris, pH 7.4, 100 mM sodium chloride solution, 1 mM magnesium chloride solution, 1 mM DL-dithiothreitol solution, 0.2 mg/mL bovine serum albumin solution, 0.025% NP-40.
(§5) Assay buffer 1b (AB1b) for Biotin-IWR2 dilution: 50 mM Tris, pH 7.4, 100 mM sodium chloride solution, 1 mM magnesium chloride solution, 1 mM DL-dithiothreitol solution, 0.2 mg/mL bovine serum albumin solution, 0.05% NP-40
(§6) Assay buffer 1c (AB1c) for compound dilution: 50 mM Tris, pH 7.4, 100 mM sodium chloride solution, 1 mM magnesium chloride solution, 1 mM DL-dithiothreitol solution, 0.2 mg/mL bovine serum albumin solution
(§7) Assay buffer 2 (AB2) for Eu/APC: 50 mM Tris, pH 7.4, 100 mM sodium chloride solution, 1 mM magnesium chloride solution, 0.2 mg/mL bovine serum albumin solution
(§8) Reagent Stock Solution Preparation
Prepare Biotinylated IWR2 stock solution (3.33× stock) for TOTL and compound wells: 200 nM Biotin-IWR2 in 5% DMSO/AB1b buffer
(§9) Prepare BLANK well stock solution: 5% DMSO/AB1b buffer
Prepare POSITIVE CONTROL well stock solution (3.33× stock): 200 nM XAV939 in 200 nM Biotin-IWR2/5% DMSO/AB1b buffer
(§10) Prepare TNKS 1 stock solution (5× stock): 300 nM TNKS in AB1a buffer. (Alternatively, use TNKS2 or PARP1 stock solutions.)
Prepare Eu/APC stock solution (5× stock): 3.5 nM Eu-SA/50 nM APC-His6Ab in AB2 buffer.
Add 25 μL/well 1.5% DMSO/AB1c buffer in each compound well to the compound concentration at 74 μM in 8.8% DMSO/AB1c buffer or in the 2 μL DMSO CONTROL wells (BLANK, TOTAL and POSITIVE wells) in the compound plate. Transfer 3 μL/well of above solution (solution 1,2,3) to an empty assay plate (BD1536-well plate) as follows: • TOTAL and cpd wells: Solution 1 (Biotin-IWR2): • BLANK wells: Solution 2 (No Biotin-IWR2): • POSITIVE CONTROL wells: Solution 3 (Biotin-IWR2+XAV939)
(§11) Transfer 3 μL/well of the above diluted compound solutions or compound dilution buffer to the above assay plate. Add 2 μL/well of 300 nM TNKS stock solution (4) to every well in the above assay plate. Centrifuge the assay plate at 2100 rpm for 2 min. Incubate the assay plate at 26° C. for 30 minutes. Add 2 μL/well 3.5 nMEu/50 nM APC solution (5) to every well in the above assay plate. Centrifuge the assay plate at 2100 rpm for 2 min. Incubate the assay plate at 26° C. for 60 min. Read the assay plate immediately at excitation wavelength of 330 nm and emission wavelength of 615 and 665 nM in time resolved fluorescence mode.
XAV939 (+ve control): 60 nM at ˜70% Inhibition
General Library compounds: 22.23 μM in 4% DMSO

[2] = molecular target: T2, Tankyrase 1 (TNKS1) (Homo sapiens, UniProt O95271); experiment: μHTS-TNKS-IWR2 TR-FRET Binding Assay (Example 118), His6-TNKS1
T2 construct: His6-TNKS1, MW=28.2 KDa (construct: 1088-1327, 1266M)
T2 sequence (O95271 1088-1327): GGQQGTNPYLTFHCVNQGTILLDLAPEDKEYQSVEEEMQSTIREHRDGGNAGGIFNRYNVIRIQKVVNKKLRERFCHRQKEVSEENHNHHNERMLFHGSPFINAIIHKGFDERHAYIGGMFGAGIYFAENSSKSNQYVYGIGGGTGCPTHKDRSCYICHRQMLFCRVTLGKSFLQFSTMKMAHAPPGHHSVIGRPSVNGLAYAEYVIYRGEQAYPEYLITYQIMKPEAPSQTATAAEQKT
Experimental: as §1, §2, §3
(XAV939) in DMSO, stored at −20° C.
as §4, §5, §6, §7, §8, §9, §10
Transfer 3 μL/well of above solution (solution 1,2,3) to an empty assay plate (BD1536-well plate) as follows: • TOTAL and cpd wells: Solution 1 (Biotin-IWR2): • BLANK wells: Solution 2 (No Biotin-IWR2): • POSITIVE CONTROL wells: Solution 3 (Biotin-IWR2+XAV939)
as §11, with “min.” for “min. Read the assay plate immediately at excitation wavelength of 330 nm and emission wavelength of 615 and 665 nM in time resolved fluorescence mode.”

[3] = tested on: Wnt stimulated TCF transcriptional activity, HEK293-TS 112 TCF reporter cell line; experiment: Tankyrase 1 Assay (Example 119): Wnt3A-stimulated TOPbrite TCF luciferase reporter; format: cell-based; settings: Compounds I-59 to I-144, procedure in Example 119 (0.5 ug/mL Wnt3A, 16 hours); read-out: TNKS1 (IC50)
Method in brief: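 HEK293 cells carrying TOPbrite firefly luciferase (eight TCF/LEF sites) were stimulated with 0.5 ug/mL Wnt3A and exposed to compounds for 16 hours at 37 degrees, 5% CO2. Firefly/SV40 Renilla luciferase ratio minus background from non-Wnt3A wells gave TCF activity; IC50 by four-parameter fit.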

T1 sequence (Q9H2K2 934-1166): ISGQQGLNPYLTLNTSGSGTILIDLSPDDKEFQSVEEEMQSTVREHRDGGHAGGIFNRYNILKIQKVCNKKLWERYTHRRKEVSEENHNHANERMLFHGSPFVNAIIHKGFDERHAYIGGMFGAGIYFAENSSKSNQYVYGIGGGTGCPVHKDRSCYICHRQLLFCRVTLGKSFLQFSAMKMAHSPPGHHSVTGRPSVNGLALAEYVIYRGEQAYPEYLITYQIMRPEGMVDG

Row | Structure (SMILES) | IC50 [1] [nM] | IC50 [2] [nM] | IC50 [3] [nM]
1 | Cn1ncc2c(=O)[nH]c(N3CCC(C#N)(c4ccc(F)cc4)CC3)nc21 [Compound I-33, 4-(4-fluorophenyl)-1-(1-methyl-4-oxo-5H-pyrazolo[3 4-d]pyrimidin-6-yl)piperidine-4-carbonitrile] | 21.7 | 32 | –
2 | O=c1[nH]c(N2CCN(c3ccccc3F)CC2)cc2[nH]ncc12 [Compound I-12, 6-[4-(2-fluorophenyl)piperazin-1-yl]-1 5-dihydropyrazolo[4 3-c]pyridin-4-one] | 176 | 105 | –
3 | Cn1ncc2c(=O)[nH]c(N3CCN(c4ncccc4C(F)(F)F)CC3)cc21 [Compound I-26, 1-methyl-6-[4-[3-(trifluoromethyl)-2-pyridyl]piperazin-1-yl]-5H-pyrazolo[4 3-c]pyridin-4-one] | 30.4 | 29 | –
4 | Cn1ncc2c(=O)[nH]c(N3CCN(c4c(Cl)cncc4Cl)CC3)nc21 [Compound I-34, 6-[4-(3 5-dichloro-4-pyridyl)piperazin-1-yl]-1-methyl-5H-pyrazolo[3 4-d]pyrimidin-4-one] | 28.9 | 29 | –
5 | Cn1ncc2c(=O)[nH]c(N3CCN(c4ncccc4C#N)CC3)nc21 [Compound I-18, 2-[4-(1-methyl-4-oxo-5H-pyrazolo[3 4-d]pyrimidin-6-yl)piperazin-1-yl]pyridine-3-carbonitrile] | 228 | 150 | –
6 | COCCOc1cc(F)c(F)c(N2CCN(c3nc4c(cnn4C)c(=O)[nH]3)CC2)c1 [Compound I-58] | 47.1 | – | –
7 | Cn1ncc2c(=O)[nH]c(N3CCN(c4c(F)cc(OCC5C[S+]([O-])C5)cc4F)CC3)nc21 (stereo not drawn) [Compound I-72, 6-[4-[2 6-difluoro-4-[(1-oxothietan-3-yl)methoxy]phenyl]piperazin-1-yl]-1-methyl-5H-pyrazolo[3 4-d]pyrimidin-4-one] | – | – | 8.6
8 | Cn1ncc2c(=O)[nH]c(N3CCN(S(C)(=O)=O)CC3)nc21 [Compound I-142, 1-methyl-6-(4-methylsulfonylpiperazin-1-yl)-5H-pyrazolo[3 4-d]pyrimidin-4-one] | – | – | 740
9 | Cn1ncc2c(=O)[nH]c(N3CCN(c4c(F)cc(OCC(O)CO)cc4F)CC3)nc21 (stereo not drawn) [Compound I-68, 6-[4-[4-(2 3-dihydroxypropoxy)-2 6-difluoro-phenyl]piperazin-1-yl]-1-methyl-5H-pyrazolo[3 4-d]pyrimidin-4-one] | – | – | 7
10 | Cn1ncc2c(=O)[nH]c(N3CCC(n4cccn4)CC3)nc21 [Compound I-112, 1-methyl-6-(4-pyrazol-1-yl-1-piperidyl)-5H-pyrazolo[3 4-d]pyrimidin-4-one] | – | – | 88.3
11 | Cn1ncc2c(=O)[nH]c(N3CCN([C@H]4CC[C@@H](O)CC4)CC3)nc21 [Compound I-124, 6-[4-(4-hydroxycyclohexyl)piperazin-1-yl]-1-methyl-5H-pyrazolo[3 4-d]pyrimidin-4-one] | – | – | 171
12 | Cn1ncc2c(=O)[nH]c(N3CCN(C4CCCCC4)CC3)nc21 [Compound I-118, 6-(4-cyclohexylpiperazin-1-yl)-1-methyl-5H-pyrazolo[3 4-d]pyrimidin-4-one] | – | – | 122
13 | COCCOc1cc(F)c(C2(O)CCN(c3nc4c(cnn4C)c(=O)[nH]3)CC2)c(F)c1 [Compound I-83, 6-[4-[2 6-difluoro-4-(2-methoxyethoxy)phenyl]-4-hydroxy-1-piperidyl]-1-methyl-5H-pyrazolo[3 4-d]pyrimidin-4-one] | – | – | 15.3
14 | Cc1cc(CN2CCN(c3nc4c(cnn4C)c(=O)[nH]3)CC2)no1 [Compound I-140, 1-methyl-6-[4-[(5-methylisoxazol-3-yl)methyl]piperazin-1-yl]-5H-pyrazolo[3 4-d]pyrimidin-4-one] | – | – | 566
15 | Cn1ncc2c(=O)[nH]c(N3CCN(C4CCN(C(=O)OC(C)(C)C)CC4)CC3)nc21 [Compound I-131, tert-butyl 4-[4-(1-methyl-4-oxo-5H-pyrazolo[3 4-d]pyrimidin-6-yl)piperazin-1-yl]piperidine-1-carboxylate] | – | – | 317
16 | CC(C)n1ccc(C2(C)CCN(c3nc4c(cnn4C)c(=O)[nH]3)CC2)n1 [Compound I-119, 6-[4-(1-isopropylpyrazol-3-yl)-4-methyl-1-piperidyl]-1-methyl-5H-pyrazolo[3 4-d]pyrimidin-4-one] | – | – | 124
17 | Cn1ncc2c(=O)[nH]c(N3CCN(c4c(F)cc(CC(O)CO)cc4F)CC3)nc21 (stereo not drawn) [Compound I-66, 6-[4-[4-(2 3-dihydroxypropyl)-2 6-difluoro-phenyl]piperazin-1-yl]-1-methyl-5H-pyrazolo[3 4-d]pyrimidin-4-one] | – | – | 6.6
18 | Cn1cc(N2CCN(c3nc4c(cnn4C)c(=O)[nH]3)CC2)cn1 [Compound I-105, 1-methyl-6-[4-(1-methylpyrazol-4-yl)piperazin-1-yl]-5H-pyrazolo[3 4-d]pyrimidin-4-one] | – | – | 63.9
19 | Cn1ncc2c(=O)[nH]c(N3CCN(c4c(F)cc(OC5CC[S+]([O-])CC5)cc4F)CC3)nc21 (stereo not drawn) [Compound I-87, 6-[4-[2 6-difluoro-4-(1-oxothian-4-yl)oxy-phenyl]piperazin-1-yl]-1-methyl-5H-pyrazolo[3 4-d]pyrimidin-4-one] | – | – | 18.7
20 | Cn1cncc1C1CCN(c2nc3c(cnn3C)c(=O)[nH]2)CC1 [Compound I-100, 1-methyl-6-[4-(3-methylimidazol-4-yl)-1-piperidyl]-5H-pyrazolo[3 4-d]pyrimidin-4-one] | – | – | 43.8
21 | Cn1ncc2c(=O)[nH]c(N3CCC(O)(c4ccc(F)cc4)CC3)nc21 [Compound I-93, 6-[4-(4-fluorophenyl)-4-hydroxy-1-piperidyl]-1-methyl-5H-pyrazolo[3 4-d]pyrimidin-4-one] | – | – | 24.6
22 | Cn1ncc2c(=O)[nH]c(N3CCN(CC4CCCCC4)CC3)nc21 [Compound I-110, 6-[4-(cyclohexylmethyl)piperazin-1-yl]-1-methyl-5H-pyrazolo[3 4-d]pyrimidin-4-one] | – | – | 80.9
